Where two headings read alike, the source gives them in different places. No end group written: not given here.
Target: T1, PRPF40A WW12 (tandem WW domains, residues 141–236) (Homo sapiens, UniProt O75400)
T1 construct: WW12 141–236, WW12long 141–248, and N-ext-WW12 56–236; 6xHis-TEV site (N, cleaved yes); made in house; host or cells: Escherichia coli BL21(DE3)
Experiment: ITC of PRPF40A WW12 with GB1-tagged proline-rich peptides and constructs
Assay type: binding
Conditions: for N (sites): ITC as E1, peptide in the cell, N >1 = more than one WW tandem per peptide; for DH: ITC binding enthalpy; for Kd: ITC
Text: PRPF40A isoform 1 sequences (N-ter 1–310, WW12short 141–223, WW12 141–236, WW12long 141–248, and N-ext-WW12 56–236) were amplified from a purchased DNA fragment (IDT) and cloned using NcoI and KpnI restriction sites into a pETM11 vector encoding 6xHis and TEV cleavage site as a N-terminal tag. SF1 (Pro A 410–468, Pro B 468–539, Pro C 539–594, Pro D 594–639, Pro BC 468–594, Pro CD 539–639, Pro BCD 468–639 and Pro ABCD 410–639) and SF3A1 (Middle Pro 364–413 and C-ter Pro 552–683) constructs were prepared in a similar manner using a pET24 vector with a 6xHis, GB1 and TEV cleavage site as N-terminal fusion cassette. 16-mer SF1 constructs (Table 1) and polyproline peptides (P6, P8, P10, P13, P16, P19, P22, P25, and P29) were cloned in the same pET24 vector with GB1 tag by direct ligation of purchased oligonucleotides (Eurofins). All peptide sequences contained N and C-terminal common residues to avoid boundary effects on binding: TEVsite-GAMSGS-peptide-SGSN. Mutants of PRPF40A WW12 and N-ext-WW12 constructs were prepared by site-directed mutagenesis. The truncated version of PRPF40A WW12 (141-217) was a gift from Dr. María Macías (IRB, Spain). All used oligonucleotides were purchased from Eurofins Genomics and are shown in Supplementary Table 6.
Resuspended cell pellets in 20 mM Tris pH 8.0, 500 mM NaCl, 10 mM imidazole, 0.5 mM TCEP, and protease inhibitors mix (SERVA) were lysed by cell disruption in a French press. Clear lysates, after centrifugation (at 18,000 g) and filtering, were loaded into Ni-NTA resin. The resin was then washed with 20 mM imidazole containing buffer, and the desired protein was eluted with 500 mM imidazole. PRPF40A constructs were then subjected to TEV protease treatment (homemade at a final concentration of ≈50 μg/ml), dialyzed overnight at 4 °C against an imidazole-free buffer, and then loaded again to Ni-NTA resin; desired digested proteins were obtained in the flow-through and wash fractions while uncleaved protein, TEV protease, and impurities remained bound to the resin. Cleaved PRPF40A proteins and GB1-tagged SF1, SF3A1, and polyproline constructs were further purified by size-exclusion chromatography on a HiLoad 16/60 Superdex 75 column (GE Healthcare) equilibrated with 20 mM sodium phosphate, pH 6.5, 100 mM NaCl and 1 mM DTT buffer. For the purification of PRPF40A WW12 in complex with SF1 peptide, cell pellets of recombinant expression for both proteins were mixed and processed together following the Ni-NTA—TEV digestion—reverse Ni-NTA—SEC-75 protocol; where the complex remained bound in a 1:1 stoichiometry throughout the whole purification (corroborated by NMR). Molecular weight of each sample was confirmed by mass spectrometry, purity was checked by PAGE-SDS, and protein concentrations were determined from the aromatic contribution to the UV absorbance spectra at 280 nm.
Experiments were conducted on a MicroCAl PEAQ-ITC (Malvern Instruments, UK) at 25 °C in 20 mM sodium phosphate pH 6.5 and 100 mM NaCl. PRPF40A was titrated into N-terminal GB1 tagged SF1 or polyproline constructs and vice versa with similar results. Protein concentrations in the cell were around 20–40 μM, while in the syringe ranged between 200 and 500 μM. Experiments were performed at least in duplicate with injections of 1.5 μL (0.4 μL for first point) separated by 150 s delays to recover thermal power baseline and continuous stirring in the cell (750 rpm) for correct mixing. The reference cell was filled with water in all experiments. Data were processed by removing the blank experiment (using digested GB1 fusion protein) and adjusted to one-site binding model with Malvern PEAQ-ITC Analysis software (Malvern Instruments, UK).

[1] = 25 °C, 20 mM sodium phosphate pH 6.5, 100 mM NaCl, GB1-tagged polyproline or SF1 16-mer peptide in the cell, WW tandem in the syringe, one-site model, apparent Kd, average of at least duplicates, read-out: Kd
[2] = SF1 peptides, individual value 1 (replicate 1), read-out: Kd Values with WW12, individual value
[3] = SF1 peptides, individual value 2 (replicate 2), read-out: Kd Values with WW12, individual value
[4] = SF1 peptides, individual value 3 (replicate 3), read-out: Kd Values with WW12, individual value

T1 sequence (O75400 141-236): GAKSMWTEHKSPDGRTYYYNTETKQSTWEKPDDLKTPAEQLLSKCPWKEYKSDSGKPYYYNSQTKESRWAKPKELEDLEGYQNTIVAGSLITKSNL

| Substance | N (sites) (WW tandem in the syringe) | DH (as E1) [kcal/mol] | further results |
| --- | --- | --- | --- |
| MPPFGMPPAPPPPPPQ [SF1_623–638, GB1-tagged 16-mer from the SF1 C-terminal region] | 0.95 ± 0.10 | -10.7 ± 3.54 | Kd [1]: 23.3 ± 13.3 µM; Kd [2]: 21.8 µM; Kd [3]: 24.8 µM |
| MPPPPPPPSGQPPPPP [SF1_478–493, GB1-tagged 16-mer from the SF1 C-terminal region] | 0.80 ± 0.11 | -14.3 ± 0.956 | Kd [1]: 9.59 ± 0.9 µM; Kd [2]: 8.26 µM; Kd [3]: 10.3 µM; Kd [4]: 10.2 µM |
| MQPPPPPMNQGPHPPG [SF1_425–440, GB1-tagged 16-mer from the SF1 C-terminal region] | 0.87 ± 0.07 | -13.3 ± 1.41 | Kd [1]: 20.2 ± 3.1 µM; Kd [2]: 15.9 µM; Kd [3]: 21.8 µM; Kd [4]: 22.9 µM |
| MYAPPPPPPPPMDPSN [SF1_596–611, GB1-tagged 16-mer from the SF1 C-terminal region] | 1.10 ± 0.30 | -10.9 ± 8.8 | Kd [1]: 65.9 ± 50.7 µM |
| P10: recombinant GB1-tagged polyproline peptide, 10 prolines (GB1-GAMSGSPPPPPPPPPPSGSN; not fully specified) | 0.89 ± 0.11 | -9.63 ± 1.24 |  |
| P13: recombinant GB1-tagged polyproline peptide, 13 prolines (GB1-GAMSGSPPPPPPPPPPPPPSGSN; not fully specified) | 0.78 ± 0.07 | -15.7 ± 1.54 |  |
| P16: recombinant GB1-tagged polyproline peptide, 16 consecutive proline residues (GB1-GAMSGSPPPPPPPPPPPPPPPPSGSN; also: His6 tag state not given here) | 0.88 ± 0.08 | -15.2 ± 0.621 |  |
| P19: recombinant GB1-tagged polyproline peptide, 19 prolines (GB1-GAMSGSPPPPPPPPPPPPPPPPPPPSGSN; also: His6 tag state not given here) | 1.10 ± 0.04 | -18.2 ± 0.837 |  |
| P22: recombinant GB1-tagged polyproline peptide, 22 prolines (GB1-GAMSGSPPPPPPPPPPPPPPPPPPPPPPSGSN; also: His6 tag state not given here) | 1.39 ± 0.03 | -18.6 ± 0.574 |  |
| P25: recombinant GB1-tagged polyproline peptide, 25 prolines (GB1-GAMSGSPPPPPPPPPPPPPPPPPPPPPPPPPSGSN; also: His6 tag state not given here) | 2.30 ± 0.09 | -16.6 ± 0.645 |  |
| P29: recombinant GB1-tagged polyproline peptide, 29 prolines (GB1-GAMSGSPPPPPPPPPPPPPPPPPPPPPPPPPPPPPSGSN; also: His6 tag state not given here) | 2.47 ± 0.09 | -15.8 ± 0.502 |  |
| SF1 Pro A: GB1-tagged SF1 construct, residues 410–468 (GB1-GHPMQHNPNGPPPPWMQPPPPPMNQGPHPPGHHGPPPMDQYLGSTPVGSGVYRLHQGKG; also: His6 tag state not given here) |  |  | DH (as E4): -15.1 ± 3.54 kcal/mol |
| SF1 Pro C: GB1-tagged SF1 construct, residues 539–594, contains the WWbs 16-mer (GB1-GSIPPWQQQQAAAAASPGAPQMQGNPTMVPLPPGVQPPLPPGAPPPPPPPPPGSAG; also: His6 tag state not given here) |  |  | DH (as E4): -20.6 ± 0.22 kcal/mol |
| SF1 Pro D: GB1-tagged SF1 construct, residues 594–639 (GB1-GMMYAPPPPPPPPMDPSNFVTMMGMGVAGMPPFGMPPAPPPPPPQN; also: His6 tag state not given here) |  |  | DH (as E4): -16 ± 4.52 kcal/mol |
| SF3A1 Middle Pro: GB1-tagged SF3A1 construct, residues 364–413, contains a PPLP motif (GB1-EGQKVPPPPETPMPPPLPPTPDQVIVRKDYDPKASKPLPPAPAPDEYLVS; also: His6 tag state not given here) |  |  | DH (as E4): -27.25 ± 6.48 kcal/mol |
| TMVPLPPGVQPPLPPG [SF1_565–580, GB1-tagged 16-mer from the SF1 C-terminal region] | 1.06 ± 0.11 | -13.5 ± 1.96 | Kd [2]: 24 µM; Kd [3]: 37.8 µM; Kd [4]: 23.4 µM; Kd (SF1 peptides, individual value 4 (replicate 4), read-out: Kd Values with WW12, individual value): 36.5 µM |

From article PMC11079029, “Intramolecular autoinhibition regulates the selectivity of PRPF40A tandem WW domains for proline-rich motifs” (Nature Communications, 2024)
